According to PubChem BioAssay AID743267 (Broad Institute, 2014):

The molecules below were run on human bronchial epithelial cells, CFTR corrector, plate reader (assay: rescue of ΔF508 CFTR function, airway epithelium – human bronchial epithelial cells, plate reader, cherry-pick, two tests, dose response (AID 743267)). Details: measured here: test 1 replicate run.

Q: How did the AC50 turn out when `COc1cccc(S(=O)(=O)N(C)C[C@@H]2Oc3cc(C4=CCCC4)ccc3S(=O)(=O)N([C@H](C)CO)C[C@H]2C)c1` was run?
A: 16 µM

Q: `N#C[C@@H]1[C@H](c2ccc(-c3cccc(F)c3)cc2)[C@H](CO)N1C(=O)NC1CCCC1` was tested. Which AC50 did it give?
A: > 50 µM

Q: With `Cc1ccc(-c2ccc3c(c2)O[C@H](CN(C)C(=O)Nc2ccc(C(F)(F)F)cc2)[C@@H](C)CN([C@@H](C)CO)S3(=O)=O)cc1` as the molecule, how does the AC50 read?
A: > 50 µM

Q: `Cc1ccc(-c2ccc3c(c2)O[C@@H](CN(C)Cc2ccccn2)[C@H](C)CN([C@H](C)CO)S3(=O)=O)cc1` was tested. Which AC50 did it give?
A: 13.6 µM

Q: Which AC50 does the source give for `Cc1ccc(-c2ccc3c(c2)O[C@H](CN(C)Cc2ccccn2)[C@@H](C)CN([C@@H](C)CO)S3(=O)=O)cc1` here?
A: 18 µM

Q: `CN1c2ccc(-c3ccc(F)cc3)cc2[C@H]2[C@H](CCN2S(=O)(=O)c2cccc(F)c2)[C@H]1CO` was tested. Which AC50 did it give?
A: 4.41 µM

Q: How did the AC50 turn out when `COc1ccc(S(=O)(=O)N2CC[C@@H]3[C@@H](CO)N(C)c4ccc(-c5ccc(F)cc5)cc4[C@@H]32)cc1` was run?
A: 13 µM

Same assay, conditions: measured here: test 2 replicate run

Q: How did the AC50 turn out when `CC(=O)Nc1ccc(NC(=O)COc2cccc3c2OC(C)(C)C3)cc1` was run?
A: > 50 µM

Q: `Cc1ccc(S(=O)(=O)N[C@H](C(=O)OCC(=O)NC(=O)C2CCCCC2)C(C)C)cc1` was tested. Which AC50 did it give?
A: 38.6 µM

Q: How did the AC50 turn out when `Cc1ccc(OCC(=O)Nc2ccc3c(c2)ncn3C)cc1` was run?
A: > 50 µM

Q: For `CCOc1ccc(C)cc1S(=O)(=O)n1cnc2ccccc21`, which AC50 is on record?
A: 8.08 µM

Q: With `CCN1CCCC(OC(=O)c2cc(-c3ccccc3Cl)nc3ccccc23)C1` (stereo unspecified) as the molecule, how does the AC50 read?
A: 43.9 µM

Q: `Clc1ccc(CSc2nncn2-c2ccc3c(c2)OCCO3)cc1` was tested. Which AC50 did it give?
A: 9.62 µM

Q: How did the AC50 turn out when `O=C(NCCOc1ccccc1F)c1cc([N+](=O)[O-])ccc1N1CCOCC1` was run?
A: 5.95 µM

Q: For `CCOC(=O)/C(=C/C=C1\Sc2cc(C)c(C)cc2N1CC)C(C)=O`, which AC50 is on record?
A: 13.6 µM

Q: Which AC50 does the source give for `COc1ccc(-c2cc(=O)c3c(O)cc(O)cc3o2)cc1` here?
A: > 50 µM

Q: How did the AC50 turn out when `COc1ccc(NCC(=O)n2c(C)c(C)c3ccccc32)cc1` was run?
A: 5.59 µM

Q: How did the AC50 turn out when `COc1ccc(C2c3ccc4ccccc4c3Oc3ncn(CCCO)c(=N)c32)cc1OC` (stereo unspecified) was run?
A: 25.5 µM

Q: How did the AC50 turn out when `COc1ccccc1C(=O)NC(=S)/C=C1/N(C)c2ccccc2C1(C)C` was run?
A: > 50 µM

Q: Which AC50 does the source give for `c1ccc(CCNc2nc(-c3ccccn3)nc3ccccc23)cc1` here?
A: 2.77 µM

Q: Which AC50 does the source give for `COc1ccc(/C=N/NC(=O)c2cccnc2)cc1CSc1ccccn1` here?
A: 28.2 µM

Q: With `CCN(C(=O)CSc1nnc(C)n1-c1ccc(C)cc1)c1c(N)n(Cc2ccccc2)c(=O)[nH]c1=O` as the molecule, how does the AC50 read?
A: > 50 µM

Q: For `CN(C)CCNC(=O)c1ccc(Cl)c2cc3ccccc3nc12`, which AC50 is on record?
A: 5.35 µM

Q: Which AC50 does the source give for `C=C1SC(Nc2c(C)cc(C)cc2C)=NC12CCCCC2` here?
A: 5.37 µM

Q: For `N#CC(C#N)=C1C=C2C=C(N3CCOCC3)CCC2CC1` (stereo unspecified), which AC50 is on record?
A: 28.2 µM

Q: How did the AC50 turn out when `O=C(CN1C(=O)NC2(CCCCCCC2)C1=O)Nc1ccc(Br)cc1` was run?
A: 1.13 µM

Q: With `O=C1c2ccccc2C(=O)c2c1cccc2N(CCO)CCO` as the molecule, how does the AC50 read?
A: > 50 µM

Q: `CCOC(=O)[C@]12CCCC=C1N(Cc1cccc3ccccc13)C(=O)[C@H](CC(=O)NCc1cccc(C(F)(F)F)c1)C2` was tested. Which AC50 did it give?
A: 30 µM

Q: Which AC50 does the source give for `CCCC(=O)NC1=C(Cl)C(=O)c2ccccc2C1=O` here?
A: 11.8 µM

Q: How did the AC50 turn out when `COc1ccc(C2=NOC(C(=O)NCc3ccc(F)cc3)C2)cc1OC` (stereo unspecified) was run?
A: 1.06 µM

Q: How did the AC50 turn out when `COc1cc(C(=O)Nc2ccc3c(c2)ncn3C)cc(OC)c1OC` was run?
A: 3.9 µM

Q: For `COc1ccc(-c2csc(NC(=S)NC(=O)/C=C/c3ccco3)n2)cc1OC`, which AC50 is on record?
A: 2.19 µM

Q: With `COc1nc(-c2ccccc2)cc(-c2ccc3c(c2)OCO3)c1C#N` as the molecule, how does the AC50 read?
A: 3.66 µM

Q: With `COc1cccc2c1C(=O)c1c(O)c3c(c(O)c1C2=O)C[C@](O)(C(C)=O)C[C@H]3O[C@@H]1C[C@@H](N)[C@@H](O)[C@@H](C)O1` as the molecule, how does the AC50 read?
A: 7.44 µM

Q: For `CC[N+]1(CC)CC2=Cc3ccccc3CC2C1` (stereo unspecified), which AC50 is on record?
A: 27.8 µM

Q: Which AC50 does the source give for `COc1cc(C(=O)OCCc2cc3ccccc3c(=O)o2)cc(OC)c1OC` here?
A: 1.59 µM

Q: Which AC50 does the source give for `O=C(O)CCCCCCCCc1cn(Cc2ccc(C(=O)c3ccccc3)cc2)nn1` here?
A: 2.17 µM

Q: How did the AC50 turn out when `N#CC1c2ccccc2-c2ccccc2N1C(=O)c1ccccc1` (stereo unspecified) was run?
A: 4.85 µM

Q: For `O=C(NCCC1CCCCN1S(=O)(=O)c1cccs1)C(=O)Nc1ccc(F)cc1F` (stereo unspecified), which AC50 is on record?
A: 8.39 µM

Q: Which AC50 does the source give for `O=C1NC(=Nc2ccc(O)cc2)S/C1=C/c1ccco1` here?
A: 4.91 µM

Q: `CC(=NNC(=S)Nc1ccc(C)cc1)c1ccccn1` was tested. Which AC50 did it give?
A: 0.499 µM

Q: With `Cc1ccc(N2CC(C(=O)N(C)CC(=O)Nc3ccc(Cl)c(C(F)(F)F)c3)CC2=O)cc1` (stereo unspecified) as the molecule, how does the AC50 read?
A: 33.3 µM

Q: `COc1ccccc1N=C1SC(C(=O)Nc2cccc(Cl)c2Cl)C(N)=C1C(N)=O` (stereo unspecified) was tested. Which AC50 did it give?
A: 6.08 µM

Q: `CN1/C(=C\C=C2/SC(=S)NC2=O)C(C)(C)c2ccccc21` was tested. Which AC50 did it give?
A: 18.5 µM

Q: Which AC50 does the source give for `Cc1ccc2cc(CN(CC3CCCO3)C(=S)Nc3ccccc3)c(=O)[nH]c2c1C` (stereo unspecified) here?
A: 3.16 µM

Q: Which AC50 does the source give for `COc1ccc(C(=O)c2cc(OC)c(OC)c(OC)c2)cc1OC` here?
A: 2.72 µM

Q: With `CCCC(=O)Nc1ccc2c(c1)nc(CN1CCN(C(=O)OCC)CC1)n2CC` as the molecule, how does the AC50 read?
A: 8.58 µM

Q: `Nc1ccc(-c2c3ccc(=O)cc-3oc3cc(O)ccc23)cc1C(=O)O` was tested. Which AC50 did it give?
A: 7.85 µM

Q: Which AC50 does the source give for `Cc1ccc(OCCNC(=O)c2cccc(S(=O)(=O)NCc3ccccc3)c2)cc1` here?
A: 1.64 µM

Q: Which AC50 does the source give for `COc1cc(Nc2c3c(nc4ccccc24)CCC3)cc(OC)c1OC` here?
A: 1.97 µM

Q: For `COc1cc(C2CC(=O)N(c3ccc(C)cc3)C(=O)C2)cc(OC)c1OC`, which AC50 is on record?
A: 2.37 µM

Q: Which AC50 does the source give for `Cc1cnc(NC(=O)CCc2ccccc2)s1` here?
A: 6.6 µM

Q: How did the AC50 turn out when `O=c1c2ccccc2oc2cc(-c3ccc4[nH]ccc4c3)ccc12` was run?
A: 1.94 µM

Q: Which AC50 does the source give for `CCOc1ccc(NC(=O)CN(c2ccc([N+](=O)[O-])cc2)S(=O)(=O)c2ccccc2)cc1` here?
A: 18.1 µM

Q: Which AC50 does the source give for `CC(=O)c1ccc(Nc2cc(C)nc3c(C)cc(C)cc23)cc1` here?
A: 3.11 µM

Q: Which AC50 does the source give for `O=C(c1ccc(Br)cc1)c1cc([N+](=O)[O-])ccc1N1CCOCC1` here?
A: 1.69 µM

Q: With `CCOc1ccc(C(=O)COC(=O)Cc2n[nH]c(=O)c3ccccc23)cc1` as the molecule, how does the AC50 read?
A: 2.53 µM

Q: How did the AC50 turn out when `CC(=O)N1CCc2c(sc(NC(=O)c3ccc4c(c3)OCCO4)c2C#N)C1` was run?
A: 7.74 µM

Q: `COc1cc2c(cc1OC)C(c1cccs1)N(C(=O)c1cccnc1)CC2` (stereo unspecified) was tested. Which AC50 did it give?
A: 4.9 µM

Q: For `CC(Sc1nc2ccccc2c(=O)n1C)C(=O)Nc1ccc2c(c1)OCCO2` (stereo unspecified), which AC50 is on record?
A: > 50 µM

Q: With `O=C(c1cccc(S(=O)(=O)N2CCOCC2)c1)N1CCCC(C(F)(F)F)C1` (stereo unspecified) as the molecule, how does the AC50 read?
A: 39.2 µM

Q: With `CC1(C)OC(c2ccccc2)=C/C(=C/C=C2C(=O)NC(=O)NC2=O)O1` as the molecule, how does the AC50 read?
A: 24.8 µM

Q: For `COc1ccc(Nc2nc(-c3sc(C)nc3C)cs2)c(OC)c1`, which AC50 is on record?
A: 12.3 µM

Q: With `Cc1cc2oc(C(=O)NCCc3ccc(S(N)(=O)=O)cc3)c(C)c2cc1C` as the molecule, how does the AC50 read?
A: 0.901 µM

Q: `C=CCCC(=O)Nc1nc(C)c(-c2csc(Nc3cc(OC)ccc3OC)n2)s1` was tested. Which AC50 did it give?
A: 10.3 µM

Q: For `CC(=O)Nc1cccc(-c2ccnc3c2CC(C)(C(=O)NCc2cccs2)O3)c1` (stereo unspecified), which AC50 is on record?
A: 3.3 µM

Q: Which AC50 does the source give for `COc1cc(-c2noc(C)c2C#Cc2ccccn2)cc(OC)c1OC` here?
A: 0.747 µM

Q: `O=C1C=CN(C2OC(CO)C(O)C2O)C(=O)C1` (stereo unspecified) was tested. Which AC50 did it give?
A: > 50 µM

Q: With `COC(=O)c1ccc(C(=O)NC2CCCc3c2cnn3-c2cc(F)cc(F)c2)nc1` (stereo unspecified) as the molecule, how does the AC50 read?
A: 8.13 µM

Q: Which AC50 does the source give for `Cc1nc(NCc2cccnc2)c2c3c(sc2n1)CCCC3` here?
A: 7.38 µM

Q: For `CCN1/C(=C\c2ccc3cc(C)ccc3[n+]2CC)Sc2cc(C)c(C)cc21`, which AC50 is on record?
A: 9.9 µM

Q: `CCOc1ccc(C(=O)N[C@H](C(=O)Nc2cccc(S(=O)(=O)N3CCCCC3)c2)C(C)C)cc1` was tested. Which AC50 did it give?
A: 46.3 µM

Q: For `CN(CC(=O)NCCc1ccc(S(N)(=O)=O)cc1)CC(=O)Nc1ccc(Cl)c(C(F)(F)F)c1`, which AC50 is on record?
A: 27.9 µM

Q: Which AC50 does the source give for `CCCCNC(=O)C(=O)Nc1ccc2c(c1)N(S(=O)(=O)c1cccs1)CCC2` here?
A: 1.89 µM

Q: For `Cc1ccc(-c2cccc(CN3CCN(C(C)C)C(CCO)C3)c2)o1` (stereo unspecified), which AC50 is on record?
A: > 50 µM

Q: With `COc1cccc(-c2cc3nc(-c4ccccc4)cc(=O)n3[nH]2)c1` as the molecule, how does the AC50 read?
A: 2.35 µM
